From ChEMBL document CHEMBL4813981, “Synthesis and in vitro antibacterial activity of new aminothiazole-oximepiperidone cephalosporins” (2021)
Converted amounts (≈) assume the structure as drawn.

Legend:
Pseudomonas aeruginosa [1] = assay: Antibacterial activity against Carbapenem- resistant Pseudomonas aeruginosa 17-5 assessed as reduction in bacterial growth in the presence of Avibactam; format: functional
Escherichia coli [2] = assay: Antibacterial activity against ESBLs positive Carbapenem-sensitive Escherichia coli 17-10 assessed as reduction in bacterial growth in the presence of Avibactam; format: functional
Enterobacter cloacae [3] = assay: Bactericidal activity against Enterobacter cloacae 17-2 assessed as reduction in bacterial growth in the presence of avibactam; format: functional
Klebsiella pneumoniae [4] = assay: Antibacterial activity against ESBLs positive Carbapenem-sensitive Klebsiella pneumoniae 17-6 assessed as reduction in bacterial growth
Escherichia coli [5] = assay: Bactericidal activity against ESBLs positive carbapenem-sensitive Escherichia coli 17-10 assessed as reduction in bacterial growth in the presence of avibactam; format: functional
Acinetobacter baumannii [6] = assay: Antibacterial activity against Carbapenem- resistant Acinetobacter baumannii 17-13 assessed as reduction in bacterial growth in the presence of Avibactam; format: functional
Escherichia coli [7] = assay: Bactericidal activity against ESBLs negative carbapenem-sensitive Escherichia coli 17-9 assessed as reduction in bacterial growth in the presence of avibactam; format: functional
Klebsiella pneumoniae [8] = assay: Antibacterial activity against Carbapenem- resistant Klebsiella pneumoniae KR 15-8 assessed as reduction in bacterial growth in the presence of Avibactam; format: functional
Enterococcus faecalis = assay: Antibacterial activity against Enterococcus faecalis ATCC 51299 assessed as reduction in bacterial growth in the presence of Avibactam; format: functional
Pseudomonas aeruginosa [9] = assay: Antibacterial activity against Carbapenem- resistant Pseudomonas aeruginosa 17-8 assessed as reduction in bacterial growth in the presence of Avibactam; format: functional
Escherichia coli [10] = assay: Bactericidal activity against Escherichia coli ATCC 25922 assessed as reduction in bacterial growth in the presence of avibactam; format: functional
Klebsiella pneumoniae [11] = assay: Antibacterial activity against ESBLs positive Carbapenem-sensitive Klebsiella pneumoniae 17-12 assessed as reduction in bacterial growth
Klebsiella pneumoniae [12] = assay: Antibacterial activity against ESBLs positive Carbapenem-sensitive Klebsiella pneumoniae 17-15 assessed as reduction in bacterial growth in the presence of Avibactam; format: functional
Pseudomonas aeruginosa [13] = assay: Bactericidal activity against carbapenem-sensitive Pseudomonas aeruginosa 17-7 assessed as reduction in bacterial growth; format: functional
Klebsiella aerogenes [14] = assay: Antibacterial activity against Enterobacter aerogenes 17-2 assessed as reduction in bacterial growth in the presence of Avibactam; format: functional
Klebsiella pneumoniae [15] = assay: Antibacterial activity against Klebsiella pneumoniae ATCC BAA-1705 assessed as reduction in bacterial growth in the presence of Avibactam; format: functional
Pseudomonas aeruginosa [16] = assay: Antibacterial activity against Carbapenem- sensitive Pseudomonas aeruginosa 17-7 assessed as reduction in bacterial growth in the presence of Avibactam; format: functional
Escherichia coli [17] = assay: Antibacterial activity against ESBLs negative Carbapenem-sensitive Escherichia coli 17-7 assessed as reduction in bacterial growth in the presence of Avibactam; format: functional
Escherichia coli [18] = assay: Antibacterial activity against Escherichia coli 15-3 overexpressing extended spectrum beta-lactamases assessed as reduction in bacterial growth; format: functional
Acinetobacter baumannii [19] = assay: Antibacterial activity against Multidrug resistant Acinetobacter baumannii AR 15-4 assessed as reduction in bacterial growth; format: functional
Klebsiella pneumoniae [20] = assay: Antibacterial activity against Carbapenem- resistant Klebsiella pneumoniae KR 15-5 assessed as reduction in bacterial growth in the presence of Avibactam; format: functional
Acinetobacter baumannii [21] = assay: Antibacterial activity against Carbapenem- resistant Acinetobacter baumannii 17-12 assessed as reduction in bacterial growth in the presence of Avibactam; format: functional
Klebsiella pneumoniae [22] = assay: Bactericidal activity against Carbapenem- resistant Klebsiella pneumoniae KR 15-5 assessed as reduction in bacterial growth in the presence of avibactam; format: functional
Enterobacter cloacae [23] = assay: Antibacterial activity against Enterobacter cloacae 17-7 assessed as reduction in bacterial growth in the presence of Avibactam; format: functional
Klebsiella pneumoniae [24] = assay: Antibacterial activity against Carbapenem- resistant Klebsiella pneumoniae KR 15-7 assessed as reduction in bacterial growth in the presence of Avibactam; format: functional
Klebsiella pneumoniae [25] = assay: Antibacterial activity against ESBLs positive Carbapenem-sensitive Klebsiella pneumoniae 17-4 assessed as reduction in bacterial growth in the presence of Avibactam; format: functional
Klebsiella pneumoniae [26] = assay: Antibacterial activity against Multidrug resistant Klebsiella pneumoniae KR 15-1 assessed as reduction in bacterial growth; format: functional
Pseudomonas aeruginosa [27] = assay: Antibacterial activity against Carbapenem- sensitive Pseudomonas aeruginosa 17-24 assessed as reduction in bacterial growth in the presence of Avibactam; format: functional
Pseudomonas aeruginosa [28] = assay: Antibacterial activity against Carbapenem- sensitive Pseudomonas aeruginosa 17-30 assessed as reduction in bacterial growth; format: functional
Enterobacter cloacae [29] = assay: Bactericidal activity against Enterobacter cloacae 17-8 assessed as reduction in bacterial growth in the presence of avibactam; format: functional
Acinetobacter baumannii [30] = assay: Antibacterial activity against Carbapenem- resistant Acinetobacter baumannii 17-8 assessed as reduction in bacterial growth in the presence of Avibactam; format: functional
Klebsiella pneumoniae [31] = assay: Antibacterial activity against ESBLs positive Carbapenem-sensitive Klebsiella pneumoniae 17-7 assessed as reduction in bacterial growth in the presence of Avibactam; format: functional
Klebsiella aerogenes [32] = assay: Bactericidal activity against Enterobacter aerogenes 17-4 assessed as reduction in bacterial growth in the presence of avibactam; format: functional
Escherichia coli [33] = assay: Antibacterial activity against ESBLs positive Carbapenem-sensitive Escherichia coli 17-22 assessed as reduction in bacterial growth in the presence of Avibactam; format: functional
Escherichia coli [34] = assay: Antibacterial activity against Escherichia coli ATCC 25922 assessed as reduction in bacterial growth in the presence of Avibactam; format: functional
Klebsiella pneumoniae [35] = assay: Antibacterial activity against ESBLs negative Carbapenem-sensitive Klebsiella pneumoniae 17-19 assessed as reduction in bacterial growth; format: functional
Enterobacter cloacae [36] = assay: Bactericidal activity against Enterobacter cloacae 17-10 assessed as reduction in bacterial growth; format: functional
Klebsiella pneumoniae [37] = assay: Antibacterial activity against ESBLs negative Carbapenem-sensitive Klebsiella pneumoniae 17-16 assessed as reduction in bacterial growth
Escherichia coli [38] = assay: Antibacterial activity against Escherichia coli 15-5 overexpressing extended spectrum beta-lactamases assessed as reduction in bacterial growth in the presence of Avibactam; format: functional
Escherichia coli [39] = assay: Antibacterial activity against Escherichia coli 15-4 overexpressing extended spectrum beta-lactamases assessed as reduction in bacterial growth in the presence of Avibactam; format: functional
Klebsiella pneumoniae [40] = assay: Antibacterial activity against Carbapenem- resistant Klebsiella pneumoniae KR 15-10 assessed as reduction in bacterial growth in the presence of Avibactam; format: functional
Klebsiella aerogenes [41] = assay: Bactericidal activity against Enterobacter aerogenes 15-4 assessed as reduction in bacterial growth in the presence of avibactam; format: functional
Klebsiella pneumoniae [42] = assay: Bactericidal activity against ESBLs positive Carbapenem-sensitive Klebsiella pneumoniae 17-12 assessed as reduction in bacterial growth in the presence of avibactam; format: functional
Klebsiella aerogenes [43] = assay: Antibacterial activity against Enterobacter aerogenes 17-4 assessed as reduction in bacterial growth in the presence of Avibactam; format: functional
Escherichia coli [44] = assay: Antibacterial activity against Escherichia coli NCTC 13353 assessed as reduction in bacterial growth in the presence of Avibactam; format: functional
Klebsiella pneumoniae [45] = assay: Bactericidal activity against ESBLs positive Carbapenem-sensitive Klebsiella pneumoniae 17-2 assessed as reduction in bacterial growth; format: functional
Acinetobacter baumannii [46] = assay: Antibacterial activity against Multidrug resistant Acinetobacter baumannii AR 15-3 assessed as reduction in bacterial growth in the presence of Avibactam; format: functional

Nc1nc(/C(=N/OCc2cc(=O)c(O)cn2O)C(=O)N[C@@H]2C(=O)N3C(C(=O)O)=CCS[C@H]23)cs1
MIC (Pseudomonas aeruginosa [1]): 32 µg/mL
MIC (Escherichia coli [2]): 0.06 µg/mL
MBC (Enterobacter cloacae [3]): 8 µg/mL
MIC (Klebsiella pneumoniae [4]): 0.5 µg/mL (≈ 0.983 µM)
MBC (Escherichia coli [5]): 0.5 µg/mL
MIC (Acinetobacter baumannii [6]): 2 µg/mL
MBC (Escherichia coli [7]): 2 µg/mL
MIC (Klebsiella pneumoniae [8]): 4 µg/mL
MIC (Enterococcus faecalis): > 64 µg/mL
MIC (Pseudomonas aeruginosa [9]): 16 µg/mL
MBC (Escherichia coli [10]): 0.5 µg/mL
MIC (Klebsiella pneumoniae [11]): 2 µg/mL (≈ 3.93 µM)
MIC (Klebsiella pneumoniae [12]): 0.125 µg/mL
MBC (Pseudomonas aeruginosa [13]): 1 µg/mL (≈ 1.97 µM)
MIC (Klebsiella aerogenes [14]): 1 µg/mL
MIC (Klebsiella pneumoniae [15]): 2 µg/mL
MIC (Pseudomonas aeruginosa [16]): 0.25 µg/mL
MIC (Escherichia coli [17]): 0.5 µg/mL
MIC (Escherichia coli [18]): 64 µg/mL (≈ 126 µM)
MIC (Acinetobacter baumannii [19]): > 64 µg/mL
MIC (Klebsiella pneumoniae [20]): 2 µg/mL
MIC (Acinetobacter baumannii [21]): 16 µg/mL
MBC (Klebsiella pneumoniae [22]): 4 µg/mL
MIC (Enterobacter cloacae [23]): 2 µg/mL
MIC (Klebsiella pneumoniae [24]): 1 µg/mL
MIC (Klebsiella pneumoniae [25]): 2 µg/mL
MIC (Klebsiella pneumoniae [26]): > 64 µg/mL
MIC (Pseudomonas aeruginosa [27]): 4 µg/mL
MIC (Pseudomonas aeruginosa [28]): 1 µg/mL (≈ 1.97 µM)
MBC (Enterobacter cloacae [29]): 2 µg/mL
MIC (Acinetobacter baumannii [30]): 16 µg/mL
MIC (Klebsiella pneumoniae [31]): 2 µg/mL
MBC (Klebsiella aerogenes [32]): 1 µg/mL
MIC (Escherichia coli [33]): 0.5 µg/mL
MIC (Escherichia coli [34]): 0.25 µg/mL
MIC (Klebsiella pneumoniae [35]): ≤ 0.03 µg/mL
MBC (Enterobacter cloacae [36]): > 8 µg/mL
MIC (Klebsiella pneumoniae [37]): 0.5 µg/mL (≈ 0.983 µM)
MIC (Escherichia coli [38]): 0.5 µg/mL
MIC (Escherichia coli [39]): 0.5 µg/mL
MIC (Klebsiella pneumoniae [40]): 1 µg/mL
MBC (Klebsiella aerogenes [41]): 1 µg/mL
MBC (Klebsiella pneumoniae [42]): 0.125 µg/mL
MIC (Klebsiella aerogenes [43]): 1 µg/mL
MIC (Escherichia coli [44]): 0.5 µg/mL
MBC (Klebsiella pneumoniae [45]): 2 µg/mL (≈ 3.93 µM)
MIC (Acinetobacter baumannii [46]): 8 µg/mL

CC(C)(O/N=C(\C(=O)N[C@@H]1C(=O)N2C(C(=O)[O-])=C(C[n+]3ccccc3)CS[C@H]12)c1csc(N)n1)C(=O)O [CEFTAZIDIME]
MIC (Pseudomonas aeruginosa [1]): 32 µg/mL
MIC (Escherichia coli [2]): 0.5 µg/mL
MBC (Enterobacter cloacae [3]): 1 µg/mL
MIC (Klebsiella pneumoniae [4]): 16 µg/mL (≈ 29.3 µM)
MBC (Escherichia coli [5]): 1 µg/mL
MIC (Acinetobacter baumannii [6]): 2 µg/mL
MBC (Escherichia coli [7]): 0.25 µg/mL
MIC (Klebsiella pneumoniae [8]): 4 µg/mL
MIC (Enterococcus faecalis): > 64 µg/mL
MIC (Pseudomonas aeruginosa [9]): 16 µg/mL
MBC (Escherichia coli [10]): 1 µg/mL
MIC (Klebsiella pneumoniae [11]): 4 µg/mL (≈ 7.32 µM)
MIC (Klebsiella pneumoniae [12]): 1 µg/mL
MBC (Pseudomonas aeruginosa [13]): 1 µg/mL (≈ 1.83 µM)
MIC (Klebsiella aerogenes [14]): 0.5 µg/mL
MIC (Klebsiella pneumoniae [15]): 4 µg/mL
MIC (Pseudomonas aeruginosa [16]): 0.125 µg/mL
MIC (Escherichia coli [17]): 0.125 µg/mL
MIC (Escherichia coli [18]): 8 µg/mL (≈ 14.6 µM)
MIC (Acinetobacter baumannii [19]): > 64 µg/mL
MIC (Klebsiella pneumoniae [20]): 2 µg/mL
MIC (Acinetobacter baumannii [21]): 8 µg/mL
MBC (Klebsiella pneumoniae [22]): 4 µg/mL
MIC (Enterobacter cloacae [23]): 2 µg/mL
MIC (Klebsiella pneumoniae [24]): 2 µg/mL
MIC (Klebsiella pneumoniae [25]): 4 µg/mL
MIC (Klebsiella pneumoniae [26]): > 64 µg/mL
MIC (Pseudomonas aeruginosa [27]): 2 µg/mL
MBC (Enterobacter cloacae [29]): 1 µg/mL
MIC (Acinetobacter baumannii [30]): 8 µg/mL
MIC (Klebsiella pneumoniae [31]): 4 µg/mL
MBC (Klebsiella aerogenes [32]): 0.5 µg/mL
MIC (Escherichia coli [33]): 1 µg/mL
MIC (Escherichia coli [34]): 0.125 µg/mL
MBC (Enterobacter cloacae [36]): 4 µg/mL (≈ 7.32 µM)
MIC (Klebsiella pneumoniae [37]): 2 µg/mL (≈ 3.66 µM)
MIC (Escherichia coli [38]): 1 µg/mL
MIC (Escherichia coli [39]): 0.5 µg/mL
MIC (Klebsiella pneumoniae [40]): 2 µg/mL
MBC (Klebsiella aerogenes [41]): 0.25 µg/mL
MBC (Klebsiella pneumoniae [42]): 1 µg/mL
MIC (Klebsiella aerogenes [43]): 0.5 µg/mL
MIC (Escherichia coli [44]): 0.5 µg/mL
MBC (Klebsiella pneumoniae [45]): 4 µg/mL (≈ 7.32 µM)
MIC (Acinetobacter baumannii [46]): 16 µg/mL

C[C@@H](O)[C@H]1C(=O)N2C(C(=O)O)=C(S[C@@H]3CN[C@H](C(=O)N(C)C)C3)[C@H](C)[C@H]12 [MEROPENEM]
MIC (Pseudomonas aeruginosa [28]): 2 µg/mL (≈ 5.22 µM)
MIC (Klebsiella pneumoniae [35]): < 0.03 µg/mL
